Here are results for 4 compounds from patent US7344730B1, “Soil granulates with controlled active ingredient release (cr soil granulates)” (BASF SE, priority 1998, dated 2008).

Molecules are shown by their SMILES. Where two headings read alike, the source gives them in different places.

Data set [1] can be described thus: Granule elution apparatus: release of active ingredient from CR granules into about 4000 ml water in 24 h. The class given is physicochemical. As to conditions: for active ingredient detected in the collected liquid: Example 3 granules (PVA+PVP coating), 30 g of granules, 3980 g of water in 24 hours; for Release rate in 24 h at 40° C., 4000 ml: coating percentage 4%. As to the method:
The plant serves to determine the delayed release of active ingredients or salts from controlled release (CR) formulations. A frit on which the granules to be tested are placed is located in a cylindrical vessel at the lower edge. Underneath the frit there is an S-shaped drain which causes liquid to drain from the cylinder only when it is 80% full. Water (if appropriate together with wetter) is pumped through the CR formulations in a cylindrical feed container (approx. volume 100 ml) by means of a hose pump in such a way that the feed material is surrounded completely by water. The percolating water is collected in receiving vessels. An automatic switch causes the receiving vessels to be changed in order to determine the release of active ingredients over time. […] Unless elution temperatures are specified, a bath temperature of 30° C. was set.
The elution plant operates 24 hours a day in conjunction with the program control. One elution takes 24 hours, and during this time approx. 4000 ml of fluid are pumped through the feed material and collected in receiving vessels. The active ingredient content in the eluate is determined by means of HPLC or GC. Whether release is uniform can be checked with reference to the feed material. The cumulative value provides a measure for assessing granule permeability.
The release rate of the active ingredients was determined in the above-described elution apparatus. To this end, 30 g of the carrier granules were weighed into a trapped container equipped with a frit. In 24 hours, an amount of 3980 g of water was pumped through the container and collected. 124 mg of fenpropimorph and 19 mg of epoxiconazole were detected in the collected liquid.

The test system of a further data set is Erysiphe-graminis. Put plainly: Field experiments on spring wheat Star: disease level Erysiphe graminis. Conditions: soil application in CR granules combined with strobilurin, Table 12 series. The class given is in vivo. The text has this:
Due to the rapid release of active ingredient, the long-term action of this sample was insufficient, so that only a minor effect was discernible in comparison with the untreated sample.
The carriers employed were urea and Rasenfloranid granules.

Data set [2] is classed as in vivo, winter wheat. As to conditions: for epoxiconazole detected per kg of biomass: winter wheat, in vivo. As to the method: This product was applied together with cereal seed (winter wheat). On average, approx. 3 fungicidal active ingredient pellets were deposited subterraneously per seed kernel. Epoxiconazole was detected in the growing cereal plants two and six months after application. Two months after sowing, 0.038 mg were detected per kg of biomass, and six months after application 0.022 mg were still detected per kg of biomass.

Regarding `CC(Cc1ccc(C(C)(C)C)cc1)CN1C[C@@H](C)O[C@@H](C)C1` (mixture of isomers) [Comp. 1, (±)-cis-4-[3-(4-tert-butylphenyl)-2-methylpropyl]-2,6-dimethyl-morpoline], the “active ingredient detected in the collected liquid” value in data set [1] stood at 124 mg.
As to `CC(=O)Oc1ccccc1C(=O)O` [acetylsalicylic acid], the “activity-enhancing effect in combination (words)” value with Erysiphe-graminis is “activity-enhancing effects”.
As to `CC(=O)Oc1ccccc1C(=O)O` [Comp. 7, acetylsalicylic acid], the “activity-enhancing effect in combination (words)” value in the data set with Erysiphe-graminis (listed as Compound 7) is listed as “same activity-enhancing effects as Bion®”.
Regarding `Fc1ccc([C@]2(Cn3cncn3)O[C@H]2c2ccccc2Cl)cc1` (racemic) [Comp. 6, (2RS,3SR)-1-[3-(2-chlorophenyl)-2,3-epoxy-2-(4-fluorophenyl)-propyl]-1H-1,2,4-triazole], the “active ingredient detected in the collected liquid” value in data set [1] came out at 19 mg. For the same compound, the “Release rate in 24 h at 40° C., 4000 ml” value in data set [1] (filler (starch C-Pur) 0%) stood at 2.70%; in data set [1] (filler (starch C-Pur) 10%), 3.30%; in data set [1] (filler (starch C-Pur) 20%), 7.15%. In data set [2] (PVA+PVP coating, Example 3), the “controlled release of the active ingredient in the soil, duration” value is “at least 6 months”. Moreover, the “epoxiconazole detected per kg of biomass” value is 0.038 mg per kg of biomass in data set [2] (2 months) and 0.022 mg per kg of biomass in data set [2] (6 months).
